Measured values published in patent EP0286364B1, “Substituted Di-t-Butylphenols” (RIKER LABORATORIES, INC., priority 1987, dated 1988).

Test system: male Hartley strain guinea pigs
Test: Konzett-Rossler in vivo test, antigen challenge of sensitized guinea pigs
Conditions: dosed orally, about 5 to 40 mg/kg, suspension in 4% aqueous acacia; ovalbumin 300 µg/kg intravenously 30 minutes later; bronchoconstrictor response
Procedure: The oral activity of compounds of Formula I may be demonsrated using the Konzett-Rossler in vivo test method. The activity is determined according to the procedure which follows. The Konzett-Rossler technique (H.Konzett and R. Rossler, Naunyn-Schmiedbergs Arch. Pharmakol., 195, 71-74, 1940 is used to assess the effect of compounds of Formula I of the invention on antigen challenge of male Hartley strain guinea pigs (350-500g). Fourteen days after sensitization with ovalbumin (50 mg/kg intraperitoneally) guinea pigs are anesthetized with pentobarbital (70 mg/kg intraperitoneally) and spontaneous respiration is eliminated with succinylcholine (2 mg/kg intra-peritoneally). The trachea is cannulated and respiration is maintained under positive pressure with a minature ventilator (5 ml/breath, 87 breaths/minute, 10 cm water). Bronchoconstrictor responses are represented as increased excursions of the tracing on a physiological recorder of air overflow to the lungs measured by a pneumotachograph in series with a differential pressure transducer. The guinea pigs are pretreated with an antihistamine, for example, chlorpheniramine, and are then dosed orally at a level of about 5 to 40 mg/kg with a suspension of a compound of Formula I of the invention in 4% aqueous acacia. The animals are challenged with ovalbumin (300 »g/kg intravenously) thirty (30) minutes later.

For CC(C)(C)c1cc(C(=O)Nc2cccc(-c3nnn[nH]3)c2)cc(C(C)(C)C)c1O.O [Example 7, 5-[3-(3,5-di-t-butyl-4-hydroxybenzamido)phenyl]tetrazole hydrate], the oral activity was “good oral activity”.
